According to patent US10087171B2, “Crystalline forms of cadazolid” (ACTELION PHARMACEUTICALS LTD, priority 2016, dated 2018):

Key:
Format in all cases: physicochemical
[1] = Relative thermodynamic stability deduced from melting points and melting enthalpies; details: at room temperature
Method: DSC data are collected on a Perkin Elmer DSC 7. The instrument is calibrated for energy and temperature using certified indium. Samples are sealed in hermetically closed gold crucibles under N2, heating rates of 10° C./min or 100° C./min, scan from −50° C. to variable end temperatures. Peak temperatures are reported for melting points.
The relative thermodynamic stability of polymorphic forms can be deduced from their melting points and melting enthalpies (L. Yu, Journal of Pharmaceutical Sciences 84 (1995) 966-974). These values are summarized in the Table 6 below for form A and C of cadazolid: […]

[2] = Suspension equilibration experiments
Method: 27 mg of cadazolid in form A and 25 mg of cadazolid in form C (obtainable as described in Example 3) are suspended in 1 mL H2O, treated for 5 min in an ultrasound bath and agitated at 25° C. The solid is filtered off after 5 days and analyzed. The obtained material is cadazolid in form B.
The following suspension equilibration experiments are performed in organic solvent (mixture of methanol and dichloromethane) and in water:
26 mg of cadazolid in form A and 25 mg of cadazolid in form C are suspended in 1 mL MeOH/CH2Cl21:3 and agitated at 25° C. The solid is filtered off after 5 days and is cadazolid in form A.
27 mg of cadazolid in form A and 26 mg of cadazolid in form C are suspended in 1 mL MeOH/CH2Cl2 1:3 and agitated at 5° C. for 2 days. Some solid is isolated by drying on a filter paper and consists of cadazolid in form A.
29 mg of cadazolid in form A and 26 mg of cadazolid in form C are suspended in 1 mL H2O, treated for 5 min in an ultrasound bath and agitated at 5° C. for 2 days. Some solid is isolated by drying on filter paper and consists of cadazolid in form B.

[3] = Gravimetric water vapor sorption analysis GVS1 at 25° C.; details: for hysteresis in GVS: 0% to 95% r.h.
Method: GVS1: Projekt Messtechnik SPS 11-100n water vapor sorption analyzer. The samples are placed in aluminum crucibles on top of a microbalance. They are equilibrated at 25° C. and 50% r.h. and are then subjected to a pre-defined humidity program at 25° C. in the order 50-0-95-50% r.h. A scanning rate of r.h.=5%/h is used and ‘isohumid’ equilibration periods are included at the extreme values.

[4] = Gravimetric water vapor sorption analysis GVS2 at 25° C.
Excerpt: GVS2: Surface Measurement Systems Ltd. DVS-1 water vapor sorption analyzer. The sample is placed in a Pt pan suspended on a micro balance and is exposed to a N2 flow with 95% r.h. at the beginning and then decreasing with a constant rate of 5%/h.

[5] = MeOH/CH2Cl2 1:3, 25° C., 5 days

| Structure (SMILES) | relative thermodynamic stability of polymorphic forms A and C [1] | solid form obtained after suspension equilibration of form A and form C together ([2]; H2O, 5° C., 2 days) | solid form obtained after suspension equilibration of form A and form C together ([2]; H2O, 25° C., 5 days) | solid form obtained after suspension equilibration of form A and form C together ([2]; MeOH/CH2Cl2 1:3, 5° C., 2 days) | solid form obtained after suspension equilibration of form A and form C together [2, 5] | relative thermodynamic stability concluded from suspension equilibration and GVS2 data ([2]; at 25° C., both at low and high relative humidity) | maximum difference in water content between 0% and 95% r.h. [3] [mol/mol] | hysteresis in GVS [3] | water content of the solid at 40% r.h. [3] [%] | water content of the solid at 95% r.h. [3] [%] | solid form after GVS (post GVS XRPD) [3] | weight increase between 0% and 95% r.h. [3] | weight increase between 0% and 95% r.h. as equivalents H2O [3] | hygroscopicity classification ([3]; 40% to 95% r.h., adapted methodology, classification according to Pharm. Eur 8.0, section 5.11) | continuous weight loss during 6 h equilibration at 95% r.h. [4] | r.h. at which the water content of form A is reached ([4]; decreasing r.h.) | additional, accelerated weight loss upon lowering the r.h. ([4]; r.h. lowered at a rate of 5%/h) |
| --- | --- | --- | --- | --- | --- | --- | --- | --- | --- | --- | --- | --- | --- | --- | --- | --- | --- |
| O=C(O)c1cn(C2CC2)c2cc(N3CCC(O)(COc4ccc(N5C[C@H](CO)OC5=O)cc4F)CC3)c(F)cc2c1=O [crystalline form A, 1-cyclopropyl-6-fluoro-7-{4-[2-fluoro-4-((R)-5-hydroxymethyl-2-oxo-oxazolidin-3-yl)-phenoxymethyl]-4-hydroxy-piperidin-1-yl}-4-oxo-1,4-dihydro-quinoline-3-carboxylic acid] | more thermodynamically stable form | form B | form B | form A | form A | thermodynamically more stable than form C | ~0.5 | No hysteresis | 0.81 | 1.81 |  |  |  |  |  |  |  |
| O=C(O)c1cn(C2CC2)c2cc(N3CCC(O)(COc4ccc(N5C[C@H](CO)OC5=O)cc4F)CC3)c(F)cc2c1=O [amorphous state, 1-cyclopropyl-6-fluoro-7-{4-[2-fluoro-4-((R)-5-hydroxymethyl-2-oxo-oxazolidin-3-yl)-phenoxymethyl]-4-hydroxy-piperidin-1-yl}-4-oxo-1,4-dihydro-quinoline-3-carboxylic acid] |  |  |  |  |  |  |  | 95% r.h. with a significant hysteresis | 1.8 | 7.17 | amorphous as tested by a post GVS | A weight increase of about 7% (circa | 2.3 equivalents H2O) between 0% and | considered as being hygroscopic (adapted |  |  |  |
| O=C(O)c1cn(C2CC2)c2cc(N3CCC(O)(COc4ccc(N5C[C@H](CO)OC5=O)cc4F)CC3)c(F)cc2c1=O [crystalline form B, 1-cyclopropyl-6-fluoro-7-{4-[2-fluoro-4-((R)-5-hydroxymethyl-2-oxo-oxazolidin-3-yl)-phenoxymethyl]-4-hydroxy-piperidin-1-yl}-4-oxo-1,4-dihydro-quinoline-3-carboxylic acid] |  |  |  |  |  |  |  |  |  |  |  |  |  |  | 30% during 6 h equilibration at 95% r.h. is | the r.h. at a rate of 5%/h. At 80% r.h., the water | loss of approx. 15% is observed upon lowering |
| O=C(O)c1cn(C2CC2)c2cc(N3CCC(O)(COc4ccc(N5C[C@H](CO)OC5=O)cc4F)CC3)c(F)cc2c1=O [crystalline form C, 1-cyclopropyl-6-fluoro-7-{4-[2-fluoro-4-((R)-5-hydroxymethyl-2-oxo-oxazolidin-3-yl)-phenoxymethyl]-4-hydroxy-piperidin-1-yl}-4-oxo-1,4-dihydro-quinoline-3-carboxylic acid] |  | form B | form B | form A | form A |  |  |  | 0.33 | 2.52 |  |  |  |  |  |  |  |
